The target in one assay is human TRPML1 (Homo sapiens, UniProt Q9GZU1). Put plainly: Fluorescent TRPML1 assay (Fluo4-AM calcium fluorescence, HEK-293 Trex cells). It counts as cell-based. The following applies: Table 3, compounds 201-283. Summed up:
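Agonist EC50 from non-linear regression of percent activity versus on-plate controls, calcium signal read at 480/540 nm. Compounds spanned 6 nM–20 μM final in triplicate. Cells: doxycycline-induced HEK-293 Trex with cell-surface human TRPML1 mutant, Fluo4-AM loaded, in Ringer's containing 10 mM calcium.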

A further assay addresses T1, TRPML3 (Homo sapiens, UniProt Q8TDD5).
T1 construct: expressed in transfected cells
T1 sequence (Q8TDD5 1-553): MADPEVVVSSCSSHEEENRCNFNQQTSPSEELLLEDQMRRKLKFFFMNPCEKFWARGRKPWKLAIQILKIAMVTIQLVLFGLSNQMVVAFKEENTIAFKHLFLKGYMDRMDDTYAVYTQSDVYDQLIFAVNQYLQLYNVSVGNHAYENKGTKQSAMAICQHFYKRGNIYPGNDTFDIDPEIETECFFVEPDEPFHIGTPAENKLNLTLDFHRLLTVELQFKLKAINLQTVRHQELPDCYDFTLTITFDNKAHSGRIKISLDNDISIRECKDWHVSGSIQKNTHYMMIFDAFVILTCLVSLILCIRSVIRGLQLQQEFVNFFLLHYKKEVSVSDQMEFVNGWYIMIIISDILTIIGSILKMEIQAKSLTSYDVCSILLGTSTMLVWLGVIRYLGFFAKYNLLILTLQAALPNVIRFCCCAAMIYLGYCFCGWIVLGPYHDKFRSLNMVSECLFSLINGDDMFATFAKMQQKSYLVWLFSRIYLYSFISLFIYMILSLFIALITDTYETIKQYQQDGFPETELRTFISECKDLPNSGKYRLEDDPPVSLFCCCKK
Kind of assay: Fluorescent TRPML3 assay (as for TRPML1). The format is cell-based. The following applies: Table 3, compounds 201-283. In short, it runs like this: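 EC50 came from non-linear regression of percent activity, set against on-plate positive and negative controls, using Fluo4 fluorescence (ex 480, em 540 nm). Compounds ran in triplicate from 6 nM to 20 µM final in half-log steps. Doxycycline-induced (0.5 ug/mL) HEK-293 Trex cells expressing surface-directed mutant channel were in 10 mM calcium Ringer's.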

Sequence of human TRPML1 (Q9GZU1 whole entry L15A/L16A/L577A/L578A, form open): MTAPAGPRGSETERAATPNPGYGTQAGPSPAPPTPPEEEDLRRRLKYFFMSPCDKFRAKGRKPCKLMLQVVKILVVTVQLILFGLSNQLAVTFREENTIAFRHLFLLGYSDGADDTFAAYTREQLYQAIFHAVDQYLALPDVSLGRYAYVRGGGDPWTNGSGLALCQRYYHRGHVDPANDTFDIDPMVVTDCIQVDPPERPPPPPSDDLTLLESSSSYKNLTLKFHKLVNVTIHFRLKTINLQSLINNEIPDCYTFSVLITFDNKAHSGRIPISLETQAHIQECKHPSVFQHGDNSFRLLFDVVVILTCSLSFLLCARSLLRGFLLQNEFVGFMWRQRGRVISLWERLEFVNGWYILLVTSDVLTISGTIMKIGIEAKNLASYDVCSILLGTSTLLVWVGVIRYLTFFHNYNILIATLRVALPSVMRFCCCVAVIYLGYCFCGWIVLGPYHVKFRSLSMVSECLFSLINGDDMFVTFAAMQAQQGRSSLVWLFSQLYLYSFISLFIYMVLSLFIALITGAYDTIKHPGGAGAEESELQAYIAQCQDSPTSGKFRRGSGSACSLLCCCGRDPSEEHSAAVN

With `CC(C)C(=O)N1CCN(c2ncnc3c(-c4cc(C#N)ccn4)cn(-c4ccccn4)c23)[C@@H](C)C1` [Compound 211, (S)-2-(4-(4-isobutyryl-2-methylpiperazin-1-yl)-5-(pyridin-2-yl)-5H-pyrrolo[3,2-d]pyrimidin-7-yl)isonicotinonitrile], the EC50 at human TRPML1 and at TRPML3 was greater than 2000 nM in each case.
Consider `CC(C)C(=O)N1CCN(c2ncnc3c(-c4cc(C#N)ccn4)cn(-c4ccccc4F)c23)[C@@H](C)C1` [Compound 212, (S)-2-(5-(2-fluorophenyl)-4-(4-isobutyryl-2-methylpiperazin-1-yl)-5H-pyrrolo[3,2-d]pyrimidin-7-yl)isonicotinonitrile], for which the EC50 at human TRPML1 and at TRPML3 was 100 to 500 nM throughout.
In the case of `CC(C)C(=O)N1C[C@H](C)N(c2ncnc3c(-c4cc(C#N)ccn4)cn(-c4ccccc4F)c23)C[C@H]1C` [Compound 213, 2-(5-(2-fluorophenyl)-4-((2S,5R)-4-isobutyryl-2,5-dimethylpiperazin-1-yl)-5H-pyrrolo [3,2-d]pyrimidin-7-yl)isonicotinonitrile], the EC50 at human TRPML1 and on TRPML3 was less than 100 nM throughout.
For the compound `C[C@H]1CN(C(=O)C(C)(C)C)CCN1c1ncnc2c1c(N1CCC1)cn2-c1cccc(F)c1` [Compound 216, (S)-1-(4-(5-(azetidin-1-yl)-7-(3-fluorophenyl)-7H-pyrrolo[2,3-d]pyrimidin-4-yl)-3-methylpiperazin-1-yl)-2,2-dimethylpropan-1-one], the EC50 on human TRPML1 is less than 100 nM; on TRPML3, greater than 2000 nM.
On the same counts, the results for `C[C@@H]1CN(c2ncnc3c2c(N2CCC2)cn3-c2cc(F)cc(F)c2)[C@@H](C)CN1C(=O)C(C)(C)C` [Compound 217, 1-((2R,5S)-4-(5-(azetidin-1-yl)-7-(3,5 difluorophenyl)-7H-pyrrolo[2,3-d]pyrimidin-4-yl)2,5-dimethylpiperazin-1-yl)-2,2-dimethylpropan-1-one] are less than 100 nM and 100 to 500 nM.
For `CC(C)C(=O)N1C[C@H](C)N(c2ncnc3c2c(N2CCC2)cn3-c2cc(F)cc(F)c2)C[C@H]1C` [Compound 218, 1-((2R,5S)-4-(5-(azetidin-1-yl)-7-(3,5-difluorophenyl)-7H-pyrrolo[2,3-d]pyrimidin-4-yl)-2,5-dimethylpiperazin-1-yl)-2-methylpropan-1-one], in that order: 100 to 500 nM and 500 to 2000 nM.
Consider `C[C@@H]1CN(c2ncnc3c2c(N2CCC2)cn3-c2cccc(F)c2)[C@@H](C)CN1C(=O)C(C)(C)C` [Compound 219, 1-((2R,5S)-4-(5-(azetidin-1-yl)-7-(3-fluorophenyl)-7H-pyrrolo[2,3-d]pyrimidin-4-yl)2,5-dimethylpiperazin-1-yl)-2,2-dimethylpropan-1-one], for which the concentration for a half-maximal effect (EC50) on human TRPML1 and on TRPML3 was less than 100 nM throughout.
With `CC(C)C(=O)N1C[C@H](C)N(c2ncnc3c2c(N2CCC2)cn3-c2cccc(Cl)c2)C[C@H]1C` [Compound 221, 1-((2R,5S)-4-(5-(azetidin-1-yl)-7-(3-chlorophenyl)-7H-pyrrolo[2,3-d]pyrimidin-4-yl)-2,5-dimethylpiperazin-1-yl)-2-methylpropan-1-one], the concentration for a half-maximal effect (EC50) on human TRPML1 is less than 100 nM; at TRPML3, 500 to 2000 nM.
Regarding `C[C@@H]1CN(c2ncnc3c2c(C(F)(F)F)cn3-c2cccc(C#N)c2)[C@@H](C)CN1C(=O)C(C)(C)C` [Compound 222, 3-(4-((2S,5R)-2,5-dimethyl-4-pivaloylpiperazin-1-yl)-5-(trifluoromethyl)-7H-pyrrolo[2,3-d]pyrimidin-7-yl)benzonitrile], the EC50 on human TRPML1 was less than 100 nM; on TRPML3, 100 to 500 nM.
For `C[C@@H]1CN(c2ncnc3c2c(C(F)(F)F)cn3-c2cncc(C#N)c2)[C@@H](C)CN1C(=O)C(C)(C)C` [Compound 224, 5-(4-((2S,5R)-2,5-dimethyl-4-pivaloylpiperazin-1-yl)-5-(trifluoromethyl)-7H-pyrrolo[2,3-d]pyrimidin-7-yl)nicotinonitrile], in that order: less than 100 nM and 500 to 2000 nM.
For `C[C@@H]1CN(c2ncnc3c2c(C(F)(F)F)cn3-c2cc(F)cc(F)c2)[C@@H](C)CN1C(=O)C(C)(C)C` [Compound 225, 1-((2R,5S)-4-(7-(3,5-difluorophenyl)-5-(trifluoromethyl)-7H-pyrrolo[2,3-d]pyrimidin-4-yl)-2,5-dimethylpiperazin-1-yl)-2,2-dimethylpropan-1-one], in that order: less than 100 nM and 100 to 500 nM.
For `C[C@@H]1CN(c2nccc3c2c(N2CCC2)cn3-c2cccc(F)c2)[C@@H](C)CN1C(=O)C(C)(C)C` [Compound 226, 1-((2R,5S)-4-(3-(azetidin-1-yl)-1-(3-fluorophenyl)-1H-pyrrolo[3,2-c]pyridin-4-yl)-2,5-dimethylpiperazin-1-yl)-2,2-dimethylpropan-1-one], in that order: less than 100 nM and less than 100 nM.
Take `C[C@H]1CN(C(=O)C(C)(C)C)CCN1c1nccc2c1c(N1CCC1)cn2-c1cccc(F)c1` [Compound 227, (S)-1-(4-(3-(azetidin-1-yl)-1-(3-fluorophenyl)-1H-pyrrolo[3,2-c]pyridin-4-yl)-3-methylpiperazin-1-yl)-2,2-dimethylpropan-1-one]: the EC50 at human TRPML1 and at TRPML3 was less than 100 nM each time.
For the compound `C[C@H]1CN(C(=O)C(C)(C)C)CCN1c1nccc2c1c(C1CC1)cn2-c1cccc(F)c1` [Compound 228, (S)-1-(4-(3-cyclopropyl-1-(3-fluorophenyl)-1H-pyrrolo[3,2-c]pyridin-4-yl)-3-methylpiperazin-1-yl)-2,2-dimethylpropan-1-one], the concentration for a half-maximal effect (EC50) at human TRPML1 and at TRPML3 was less than 100 nM each time.
As to `C[C@@H]1CN(c2ncnc3c2c(C2CCC2)cn3-c2cc(C#N)ccn2)[C@@H](C)CN1C(=O)C1(F)CC1` [Compound 236, 2-(5-cyclobutyl-4-((2S,5R)-4-(1-fluorocyclopropane-1-carbonyl)-2,5-dimethylpiperazin-1-yl)-7H-pyrrolo[2,3-d]pyrimidin-7-yl)isonicotinonitrile], the EC50 at human TRPML1 and at TRPML3 was less than 100 nM in each case.
Regarding `COC(C)(C)C(=O)N1CCN(c2ncnc3c2c(C2CC2)cn3-c2cc(C#N)ccn2)[C@@H](C)C1` [Compound 241, (S)-2-(5-cyclopropyl-4-(4-(2-methoxy-2-methylpropanoyl)-2-methylpiperazin-1-yl)-7H-pyrrolo[2,3-d]pyrimidin-7-yl)isonicotinonitrile], the EC50 on human TRPML1 and on TRPML3 was less than 100 nM throughout.
`COC1(C(=O)N2CCN(c3ncnc4c3c(-c3ccccc3F)cn4-c3cc(C#N)ccn3)[C@@H](C)C2)CC1` [Compound 243, (S)-2-(5-(2-fluorophenyl)-4-(4-(1-methoxycyclopropane-1-carbonyl)-2-methylpiperazin-1-yl)-7H-pyrrolo[2,3-d]pyrimidin-7-yl)isonicotinonitrile]: the EC50 at human TRPML1 is less than 100 nM; at TRPML3, 100 to 500 nM.
On the same counts, the results for `Cc1cn(-c2cc(F)ccn2)c2ncnc(N3C[C@@H](C)N(C(=O)C(C)(C)C)C[C@@H]3C)c12` [Compound 244, 1-((2R,5S)-4-(7-(4-fluoropyridin-2-yl)-5-methyl-7H-pyrrolo[2,3-d]pyrimidin-4-yl)-2,5-dimethylpiperazin-1-yl)-2,2-dimethylpropan-1-one] are less than 100 nM and 500 to 2000 nM.

Broadly, the EC50 is the concentration that produces a half-maximal response.

These data come from patent publication US20240398812A1 (Caraway Therapeutics, Inc., priority 2021, published 2024).
